Measured values from ChEMBL document CHEMBL3886802, “Serine/threonine kinase inhibitors” (2016).

Target: Mitogen-activated protein kinase 1 (Homo sapiens, UniProt P28482)
Test: Enzymatic Assay: Compounds were tested in an enzymatic assay using human ERK-2 (Mitogen Activated Kinase 1), recombinantly expressed as an n-terminal 6-His fusion protein in E. coli and corresponding to a 8-360. The substrate used was the fluorescent Omnia peptide S/T17 (Invitrogen of Carlsbad, Calif.; Cat. KNZ1171C). Test compounds were diluted in DMSO in 3-fold serial dilutions at 100× final concentrations. […] The assay was run at ambient temperature in a white 384-well polypropylene plate (Nunc, Inc of Naperville, Ill.; Cat. 267462) collecting data every 50 seconds for approximately 30 minutes on an Envision plate reader (PerkinElmer, Inc. of Waltham, Mass.); Excitation 340 nm/Emission 495 nm.

Chain of Mitogen-activated protein kinase 1 (P28482 whole entry, the tested form may be a part): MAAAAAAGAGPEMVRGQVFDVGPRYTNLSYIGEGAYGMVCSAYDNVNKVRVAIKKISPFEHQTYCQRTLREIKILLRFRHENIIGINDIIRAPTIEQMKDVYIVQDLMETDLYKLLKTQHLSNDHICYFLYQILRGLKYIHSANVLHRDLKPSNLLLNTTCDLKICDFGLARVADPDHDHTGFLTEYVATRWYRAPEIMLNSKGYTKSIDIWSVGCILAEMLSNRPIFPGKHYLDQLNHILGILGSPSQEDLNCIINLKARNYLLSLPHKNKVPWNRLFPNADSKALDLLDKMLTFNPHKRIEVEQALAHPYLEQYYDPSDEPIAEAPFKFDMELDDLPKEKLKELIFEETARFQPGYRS

IC50: 0.748 nM
SMILES: Cn1nccc1Nc1cc2nc(C(=O)N[C@H](CO)c3ccc(Cl)c(F)c3)ccc2cn1
